{"source": "patent US9770423B2", "about": "“Modulation sAPP, sAAPα and BDNF levels in individuals diagnosed with FXS and ASD” (Indiana University Research and Technology Corp., priority 2012, dated 2017)", "test_system": "sAPPα", "test": "plasma sAPPα by ELISA pre- and post-acamprosate", "type": "in vivo, human", "method": "Test plasma samples are measured soon after collection. When necessary test samples of plasma were frozen but not subjected to repeated freeze/thaw cycles. The test samples were thawed just before use at a low temperature and mixed them completely. If necessary, the plasma samples can be diluted appropriately with the EIA buffer, and assay may be performed in duplicate measurements for the test samples and standards. Test samples in neutral pH range were used, and steps were taken to avoid the contamination with of organic solvents. Regarding the standard to quantify the sAPPα levels, a series of sAPPα standards in EIA buffer by serial dilutions, from 0.78 ng/mL to 50 ng/mL were prepared.\nThe ELISA plates were pre-coated with anti-human sAPPα(2B3) mouse IgG-monoclonal affinity purified (IBL). First, the wells for the reagent blank were determined, and 100 μL each of “EIA buffer” or 10 mM NaHCO3 (pH9.5) buffer was placed into each of the wells. Likewise, wells were assigned for test sample blanks, test samples and diluted standards. Next, 100 μL each of test sample blank, test sample and dilutions of standard was added to into the appropriate wells. The test sample included the plasma sample from each subject, which may vary from 5-25 μl, made up to 100 μL with the EIA buffer. The pre-coated plate was incubated overnight at 4° C. after covering it tightly with a plate lid. The plate was kept onto a rocker with gentle shaking Next day, each well of the pre-coated plate was vigorously washed with wash buffer containing 0.05% Tween 20 in phosphate buffer. This was done by filling each well with the wash buffer, leaving the pre-coated plate laid for 15-30 seconds and removing wash buffer completely from the plate by snapping. This procedure was repeated five times. After removing the remaining liquid from all wells completely by snapping the plate onto paper towel, 100 μL of labeled antibody solution was added into the wells of test samples, diluted standard and test sample blank. HRP-conjugated and labeled anti-Human APP (R101A4) mouse IgG from IBL was used. Each plate was incubated for 30 minutes at 4° C. after covering it with plate lid, and then washed the plate 5 times in the same manner as described before. To develop the color, 100 μL of the Chromogen (TMB solution) was added to into the wells, and the plate was incubated for 30 minutes at room temperature in the dark. When the liquid started turning blue (by addition of the Chromogen), 100 μL of the Stop solution (1N H2SO4) was added into the wells. The liquid was mixed by tapping the side of plate, and the liquid turned yellow by addition of the Stop solution. […] A plate reader was used and measurements were conducted measurement at 450 nm against a reagent blank. […]", "note": "“And” between values parts separate entries of the source, which are not always exact repeats. Equal entries are not always repeated.", "data": [{"molecule": "CC(=O)NCCCS(=O)(=O)O.[Ca]", "note": "[acamprosate, Calcium Acetylhomotaurine]", "values": [{"measurement": "fractional change in sAPPα-CP", "setting": "individual patients 1-6, baseline to Week 12", "result": "−0.7108 and −0.3184 and 0 and −0.02825 and −0.5967 and −0.4596"}, {"measurement": "sAPPα-CP, Week 12", "setting": "individual patients 1-6, titled as diagnosed with FXS, after treatment", "result": "2.486 ng/mL and 5.056 ng/mL and 2.764 ng/mL and 4.778 ng/mL and 7.417 ng/mL and 2.694 ng/mL"}, {"measurement": "mean sAPPα post-treatment", "setting": "pooled 15 participants (9 FXS, 6 idiopathic ASD), pre-treatment 8.4±7.9 ng/mL, p=0.003", "result": "5.5 ± 7.2", "unit": "ng/mL"}, {"measurement": "mean sAPPα levels at endpoint", "setting": "six subjects of the 12-week trial, baseline 7.8 ng/mL, p=0.03", "result": 4.2, "unit": "ng/mL"}]}]}
